Test results as given in ChEMBL document CHEMBL1240489, “Discovery of N-{1-[3-(3-oxo-2,3-dihydrobenzo[1,4]oxazin-4-yl)propyl]piperidin-4-yl}-2-phenylacetamide (Lu AE51090): an allosteric muscarinic M1 receptor agonist with unprecedented selectivity and procognitive potential” (J Med Chem, 2010).
The source made the active and inactive calls. No cut-off for these calls is given here.

Experiments:
Adenosine receptor A1 [1] = biological target: T1, Adenosine receptor A1 (Homo sapiens, UniProt P30542); experiment: Binding affinity to human adenosine A1 receptor agonist site by radioligand displacement assay
[2] = biological target: Alpha-2B adrenergic receptor (Homo sapiens, UniProt P18089); experiment: Binding affinity to adrenergic alpha2B receptor by radioligand displacement assay
Adenosine receptor A1 [3] = biological target: T1, Adenosine receptor A1; experiment: Binding affinity to human adenosine A1 receptor by radioligand displacement assay
[4] = biological target: High affinity choline transporter 1 (Homo sapiens, UniProt Q9GZV3); experiment: Binding affinity to human choline transporter (CHT1) by radioligand displacement assay
D(4) dopamine receptor = D(4) dopamine receptor (Homo sapiens, UniProt P21917); experiment: Binding affinity to human D4.4 receptor by radioligand displacement assay
[5] = biological target: Muscarinic acetylcholine receptor M3 (Homo sapiens, UniProt P20309); experiment: Displacement of [3H]-4-DAMP from human muscarinic M3 receptor expressed in BHK-21 cells; format: cell-based
[6] = biological target: 5-hydroxytryptamine receptor 1A (Homo sapiens, UniProt P08908); experiment: Binding affinity to human 5-HT1A receptor by radioligand displacement assay
Mus musculus = experiment: Reversal of 60 seconds delay-induced memory decay in C57Bl/6J mouse assessed as positive alteration at 0.31 to […], sc for 1 week by Y-maze test; format: functional, organism-based
[7] = Ratio of brain to plasma AUC in C57/6J mouse at 20 mg/kg, sc; format: ADME, organism-based; parameters: dose 20 mg/kg, route subcutaneous
D(1A) dopamine receptor = D(1A) dopamine receptor (Homo sapiens, UniProt P21728); experiment: Binding affinity to human dopamine D1 receptor by radioligand displacement assay
[8] = Oral bioavailability in rat plasma at 2 mg/kg; format: ADME, organism-based
D(2) dopamine receptor [9] = biological target: T2, D(2) dopamine receptor (Homo sapiens, UniProt P14416); experiment: Binding affinity to human dopamine D2S receptor by radioligand displacement assay
Adenosine receptor A3 = Adenosine receptor A3 (Homo sapiens, UniProt P0DMS8); experiment: Binding affinity to human adenosine A3 receptor by radioligand displacement assay
[10] = Binding affinity to NMDA receptor PCP binding site by radioligand displacement assay
[11] = biological target: Ribosyldihydronicotinamide dehydrogenase [quinone] (Homo sapiens, UniProt P16083); experiment: Binding affinity to ML2 (MT3) receptor by radioligand displacement assay
Homo sapiens = species on record: Homo sapiens; experiment: Hepatic blood flow in human; format: ADME, organism-based, Liver
Adenosine receptor A2a = Adenosine receptor A2a (Homo sapiens, UniProt P29274); experiment: Binding affinity to human adenosine A2A receptor by radioligand displacement assay
[12] = biological target: Neuronal acetylcholine receptor; alpha4/beta2 (Homo sapiens, UniProt P17787+P43681); experiment: Binding affinity to nAChR alpha4beta2 receptor by radioligand displacement assay; format: protein-complex assay
Mu-type opioid receptor = Mu-type opioid receptor (Homo sapiens, UniProt P35372); experiment: Binding affinity to human mu opioid receptor agonist site by radioligand displacement assay
[13] = biological target: T3, Muscarinic acetylcholine receptor M5 (Homo sapiens, UniProt P08912); experiment: biochemical
T3 sequence (P08912 whole entry): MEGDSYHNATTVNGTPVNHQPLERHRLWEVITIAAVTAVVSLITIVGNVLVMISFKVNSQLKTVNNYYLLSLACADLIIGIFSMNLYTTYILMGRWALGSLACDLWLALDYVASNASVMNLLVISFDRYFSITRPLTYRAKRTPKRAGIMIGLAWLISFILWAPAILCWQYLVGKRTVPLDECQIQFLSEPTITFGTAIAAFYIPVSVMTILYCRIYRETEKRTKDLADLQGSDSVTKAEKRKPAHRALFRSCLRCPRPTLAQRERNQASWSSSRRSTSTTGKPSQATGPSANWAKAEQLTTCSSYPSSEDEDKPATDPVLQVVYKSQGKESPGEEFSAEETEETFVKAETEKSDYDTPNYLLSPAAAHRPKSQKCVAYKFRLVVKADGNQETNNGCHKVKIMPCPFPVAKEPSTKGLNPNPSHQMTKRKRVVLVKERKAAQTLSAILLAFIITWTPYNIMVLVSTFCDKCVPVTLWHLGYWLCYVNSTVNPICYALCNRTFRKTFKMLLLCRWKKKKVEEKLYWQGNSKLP
Description: Displacement of [3H]-4-DAMP from human muscarinic M5 receptor expressed in BHK-21 cells

Histamine H1 receptor = Histamine H1 receptor (Homo sapiens, UniProt P35367); experiment: Binding affinity to human histamine H1 receptor by radioligand displacement assay
[14] = biological target: 5-hydroxytryptamine receptor 3A (Homo sapiens, UniProt P46098); experiment: Binding affinity to human 5-HT3 receptor by radioligand displacement assay
[15] = Binding affinity to L-type Ca2+ channel verapamil site by radioligand displacement assay
[16] = biological target: Beta-2 adrenergic receptor (Homo sapiens, UniProt P07550); experiment: Binding affinity to adrenergic beta2 receptor by radioligand displacement assay
[17] = biological target: 5-hydroxytryptamine receptor 2B (Homo sapiens, UniProt P41595); experiment: Binding affinity to human 5-HT2B agonist site receptor by radioligand displacement assay
[18] = Binding affinity to adrenergic alpha1 receptor by radioligand displacement assay
[19] = biological target: T3, Muscarinic acetylcholine receptor M5; experiment: Binding affinity to human muscarinic M5 receptor by radioligand displacement assay
[20] = biological target: T4, Muscarinic acetylcholine receptor M2 (Homo sapiens, UniProt P08172); experiment: Binding affinity to human muscarinic M2 receptor by radioligand displacement assay
T4 sequence (P08172 whole entry): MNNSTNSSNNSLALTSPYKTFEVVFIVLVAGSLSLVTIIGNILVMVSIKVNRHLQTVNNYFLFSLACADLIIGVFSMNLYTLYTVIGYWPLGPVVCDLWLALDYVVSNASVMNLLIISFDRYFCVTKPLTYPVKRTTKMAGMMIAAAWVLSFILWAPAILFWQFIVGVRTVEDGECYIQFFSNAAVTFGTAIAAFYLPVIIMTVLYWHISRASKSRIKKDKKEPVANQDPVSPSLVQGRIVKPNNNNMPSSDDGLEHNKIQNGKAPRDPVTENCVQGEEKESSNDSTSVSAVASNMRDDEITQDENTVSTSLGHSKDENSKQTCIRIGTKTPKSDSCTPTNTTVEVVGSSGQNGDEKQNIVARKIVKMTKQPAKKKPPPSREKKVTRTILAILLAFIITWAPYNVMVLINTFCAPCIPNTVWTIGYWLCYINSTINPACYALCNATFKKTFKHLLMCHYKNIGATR

Cannabinoid receptor 1 = Cannabinoid receptor 1 (Homo sapiens, UniProt P21554); experiment: Binding affinity to human CB1 receptor by radioligand displacement assay
D(2) dopamine receptor [21] = biological target: T2, D(2) dopamine receptor; experiment: Binding affinity to human D2S agonist site receptor by radioligand displacement assay
[22] = Volume of distribution at steady state in rat plasma at 1 mg/kg, iv and 2 mg/kg, po; format: ADME, organism-based; conditions: read-out: Vdss
[23] = biological target: Sodium-dependent dopamine transporter (Homo sapiens, UniProt Q01959); experiment: Binding affinity to human dopamine transporter by radioligand displacement assay
[24] = biological target: Kappa-type opioid receptor (Homo sapiens, UniProt P41145); experiment: Binding affinity to kappa opioid receptor by radioligand displacement assay

T2 sequence (P14416 whole entry): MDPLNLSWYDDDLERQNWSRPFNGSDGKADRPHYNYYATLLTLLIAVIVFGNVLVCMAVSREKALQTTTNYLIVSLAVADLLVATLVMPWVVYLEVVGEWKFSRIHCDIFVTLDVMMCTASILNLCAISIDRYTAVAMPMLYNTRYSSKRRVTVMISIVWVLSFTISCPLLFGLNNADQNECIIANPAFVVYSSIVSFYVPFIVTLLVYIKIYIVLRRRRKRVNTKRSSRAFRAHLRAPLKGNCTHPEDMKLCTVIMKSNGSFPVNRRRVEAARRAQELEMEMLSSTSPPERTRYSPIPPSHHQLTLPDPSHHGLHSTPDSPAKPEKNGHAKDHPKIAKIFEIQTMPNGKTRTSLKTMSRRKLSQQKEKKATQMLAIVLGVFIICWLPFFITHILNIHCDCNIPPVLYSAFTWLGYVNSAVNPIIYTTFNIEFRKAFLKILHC
T1 sequence (P30542 whole entry): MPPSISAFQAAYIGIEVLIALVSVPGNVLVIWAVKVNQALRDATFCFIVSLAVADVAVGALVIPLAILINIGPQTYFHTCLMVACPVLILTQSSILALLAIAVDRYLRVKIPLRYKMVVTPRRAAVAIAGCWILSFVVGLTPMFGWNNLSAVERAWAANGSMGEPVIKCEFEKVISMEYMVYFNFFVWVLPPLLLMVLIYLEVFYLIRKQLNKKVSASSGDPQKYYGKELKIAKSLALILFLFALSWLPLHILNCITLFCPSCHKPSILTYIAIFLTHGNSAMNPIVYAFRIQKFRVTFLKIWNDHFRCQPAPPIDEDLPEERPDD
Sequence of Neuronal acetylcholine receptor; alpha4/beta2 (P17787 whole entry): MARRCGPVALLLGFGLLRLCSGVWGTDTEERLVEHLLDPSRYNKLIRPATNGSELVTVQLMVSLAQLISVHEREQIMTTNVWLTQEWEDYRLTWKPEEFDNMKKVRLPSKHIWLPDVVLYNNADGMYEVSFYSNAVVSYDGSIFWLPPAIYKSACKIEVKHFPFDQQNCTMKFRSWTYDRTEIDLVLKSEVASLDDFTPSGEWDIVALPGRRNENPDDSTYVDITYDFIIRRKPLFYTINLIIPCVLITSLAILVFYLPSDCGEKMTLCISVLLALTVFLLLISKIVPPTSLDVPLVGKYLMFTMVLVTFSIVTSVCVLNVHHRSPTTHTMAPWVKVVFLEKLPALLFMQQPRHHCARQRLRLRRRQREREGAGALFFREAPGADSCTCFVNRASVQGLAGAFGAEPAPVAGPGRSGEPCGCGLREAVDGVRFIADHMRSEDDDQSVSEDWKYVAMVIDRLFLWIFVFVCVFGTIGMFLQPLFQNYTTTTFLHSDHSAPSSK
Sequence of Neuronal acetylcholine receptor; alpha4/beta2 (P43681 whole entry): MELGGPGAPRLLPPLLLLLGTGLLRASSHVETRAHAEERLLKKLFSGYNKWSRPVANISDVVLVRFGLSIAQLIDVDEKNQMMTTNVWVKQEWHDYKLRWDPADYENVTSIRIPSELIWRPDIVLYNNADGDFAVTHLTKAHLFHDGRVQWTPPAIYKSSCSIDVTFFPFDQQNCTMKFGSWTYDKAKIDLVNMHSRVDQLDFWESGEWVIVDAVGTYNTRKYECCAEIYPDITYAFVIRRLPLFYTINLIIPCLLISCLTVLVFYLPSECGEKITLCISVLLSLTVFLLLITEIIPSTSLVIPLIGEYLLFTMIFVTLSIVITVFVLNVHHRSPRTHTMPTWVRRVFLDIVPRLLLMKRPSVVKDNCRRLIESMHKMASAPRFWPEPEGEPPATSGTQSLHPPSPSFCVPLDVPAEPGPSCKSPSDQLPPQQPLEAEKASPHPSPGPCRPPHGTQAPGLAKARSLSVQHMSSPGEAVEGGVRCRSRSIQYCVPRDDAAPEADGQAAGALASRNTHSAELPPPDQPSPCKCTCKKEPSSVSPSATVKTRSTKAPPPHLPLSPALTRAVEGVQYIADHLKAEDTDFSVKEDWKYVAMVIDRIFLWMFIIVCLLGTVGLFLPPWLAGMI
Sequence of Adenosine receptor A2a (P29274 whole entry): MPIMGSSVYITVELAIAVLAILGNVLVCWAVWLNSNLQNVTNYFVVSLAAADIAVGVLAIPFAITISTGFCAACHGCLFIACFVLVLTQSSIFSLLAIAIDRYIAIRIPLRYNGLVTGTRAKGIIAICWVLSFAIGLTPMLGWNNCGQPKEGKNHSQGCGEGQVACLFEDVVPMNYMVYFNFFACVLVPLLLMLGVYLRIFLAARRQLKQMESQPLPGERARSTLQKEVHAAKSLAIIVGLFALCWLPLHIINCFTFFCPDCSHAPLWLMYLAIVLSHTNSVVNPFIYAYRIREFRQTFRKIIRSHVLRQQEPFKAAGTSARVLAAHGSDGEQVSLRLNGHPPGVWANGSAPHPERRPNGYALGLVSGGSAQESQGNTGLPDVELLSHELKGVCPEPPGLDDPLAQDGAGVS
Sequence of 5-hydroxytryptamine receptor 1A (P08908 whole entry): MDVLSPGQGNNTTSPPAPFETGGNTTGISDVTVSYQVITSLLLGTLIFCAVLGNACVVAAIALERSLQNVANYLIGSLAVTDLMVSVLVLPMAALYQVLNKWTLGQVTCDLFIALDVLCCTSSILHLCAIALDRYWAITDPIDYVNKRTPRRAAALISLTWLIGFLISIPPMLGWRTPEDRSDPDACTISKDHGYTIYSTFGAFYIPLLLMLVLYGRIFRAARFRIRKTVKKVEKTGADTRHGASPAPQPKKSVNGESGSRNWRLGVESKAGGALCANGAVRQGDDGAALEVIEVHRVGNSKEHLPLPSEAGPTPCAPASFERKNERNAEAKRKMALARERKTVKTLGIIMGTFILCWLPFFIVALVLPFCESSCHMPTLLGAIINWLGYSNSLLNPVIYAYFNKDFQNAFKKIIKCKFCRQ
Sequence of Mu-type opioid receptor (P35372 whole entry): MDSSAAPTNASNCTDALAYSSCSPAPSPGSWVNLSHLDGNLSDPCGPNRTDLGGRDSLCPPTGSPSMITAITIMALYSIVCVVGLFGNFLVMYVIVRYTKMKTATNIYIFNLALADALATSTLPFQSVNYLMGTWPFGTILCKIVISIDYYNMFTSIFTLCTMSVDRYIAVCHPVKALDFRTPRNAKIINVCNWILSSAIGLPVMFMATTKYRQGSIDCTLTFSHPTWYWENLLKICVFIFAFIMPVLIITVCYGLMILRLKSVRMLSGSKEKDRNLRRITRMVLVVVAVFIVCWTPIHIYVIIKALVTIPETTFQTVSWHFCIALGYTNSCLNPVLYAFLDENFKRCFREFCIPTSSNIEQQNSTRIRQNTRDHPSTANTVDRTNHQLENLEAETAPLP
Sequence of Histamine H1 receptor (P35367 whole entry): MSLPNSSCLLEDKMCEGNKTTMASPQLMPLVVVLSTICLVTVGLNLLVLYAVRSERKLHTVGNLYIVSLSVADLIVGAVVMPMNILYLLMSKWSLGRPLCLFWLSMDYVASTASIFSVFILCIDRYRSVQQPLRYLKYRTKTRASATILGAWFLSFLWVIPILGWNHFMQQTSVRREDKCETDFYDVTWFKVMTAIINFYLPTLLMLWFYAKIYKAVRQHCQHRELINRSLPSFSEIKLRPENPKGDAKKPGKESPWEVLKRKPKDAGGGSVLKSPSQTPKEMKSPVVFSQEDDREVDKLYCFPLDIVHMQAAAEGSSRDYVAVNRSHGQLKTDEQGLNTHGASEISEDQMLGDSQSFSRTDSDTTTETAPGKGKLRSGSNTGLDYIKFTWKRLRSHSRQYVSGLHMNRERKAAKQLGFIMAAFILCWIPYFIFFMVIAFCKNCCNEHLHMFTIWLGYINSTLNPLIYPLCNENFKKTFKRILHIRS
Sequence of Sodium-dependent dopamine transporter (Q01959 whole entry): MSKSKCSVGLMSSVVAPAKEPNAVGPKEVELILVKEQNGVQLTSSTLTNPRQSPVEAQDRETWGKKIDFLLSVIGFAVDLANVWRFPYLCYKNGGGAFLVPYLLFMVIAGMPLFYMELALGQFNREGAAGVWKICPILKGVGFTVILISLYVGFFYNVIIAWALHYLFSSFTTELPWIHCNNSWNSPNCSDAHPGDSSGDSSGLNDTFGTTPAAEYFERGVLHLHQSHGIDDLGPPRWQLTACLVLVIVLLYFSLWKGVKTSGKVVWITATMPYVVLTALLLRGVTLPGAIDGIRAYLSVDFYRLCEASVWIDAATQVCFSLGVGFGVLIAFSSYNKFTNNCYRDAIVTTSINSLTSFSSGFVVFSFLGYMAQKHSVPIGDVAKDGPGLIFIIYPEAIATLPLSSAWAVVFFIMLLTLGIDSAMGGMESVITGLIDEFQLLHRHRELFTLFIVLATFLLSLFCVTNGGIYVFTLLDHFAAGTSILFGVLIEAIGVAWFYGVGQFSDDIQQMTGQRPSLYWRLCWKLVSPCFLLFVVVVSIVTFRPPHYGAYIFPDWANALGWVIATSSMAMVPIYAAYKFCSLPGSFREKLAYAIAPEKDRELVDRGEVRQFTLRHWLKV
Sequence of 5-hydroxytryptamine receptor 2B (P41595 whole entry): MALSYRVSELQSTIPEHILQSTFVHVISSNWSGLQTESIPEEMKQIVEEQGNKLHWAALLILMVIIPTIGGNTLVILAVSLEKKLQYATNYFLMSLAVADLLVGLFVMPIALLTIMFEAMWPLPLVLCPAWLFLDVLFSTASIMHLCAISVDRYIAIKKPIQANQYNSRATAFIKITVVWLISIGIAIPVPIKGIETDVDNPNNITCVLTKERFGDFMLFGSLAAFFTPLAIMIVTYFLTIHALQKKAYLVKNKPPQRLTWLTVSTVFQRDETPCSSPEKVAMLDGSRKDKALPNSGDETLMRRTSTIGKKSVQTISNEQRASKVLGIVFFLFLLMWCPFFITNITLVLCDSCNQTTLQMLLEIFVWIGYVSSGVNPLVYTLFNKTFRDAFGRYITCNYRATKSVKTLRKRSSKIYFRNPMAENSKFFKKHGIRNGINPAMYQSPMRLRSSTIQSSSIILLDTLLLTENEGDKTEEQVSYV
Sequence of Ribosyldihydronicotinamide dehydrogenase [quinone] (P16083 whole entry): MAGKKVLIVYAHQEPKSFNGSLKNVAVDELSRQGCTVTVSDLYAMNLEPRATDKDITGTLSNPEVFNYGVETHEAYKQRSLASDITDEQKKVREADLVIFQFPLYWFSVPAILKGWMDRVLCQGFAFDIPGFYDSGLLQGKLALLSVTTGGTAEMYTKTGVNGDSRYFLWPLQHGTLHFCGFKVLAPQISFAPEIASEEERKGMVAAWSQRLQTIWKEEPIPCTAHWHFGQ

O=C(Cc1ccccc1)NC1CCN(CCCN2C(=O)COc3ccccc32)CC1
Ki (Adenosine receptor A1 [1]): ≥ 1 µM | Ki [2]: ≥ 1 µM | Ki (Adenosine receptor A1 [3]): ≥ 1 µM | Ki [4]: ≥ 1 µM | Ki (D(4) dopamine receptor): ≥ 1 µM | Ki [5]: 7 µM | Ki [6]: ≥ 1 µM | Activity (Mus musculus): inactive | Kp [7]: 0.35 | Ki (D(1A) dopamine receptor): ≥ 1 µM | bioavailability [8]: 4% | Ki (D(2) dopamine receptor [9]): ≥ 1 µM | Ki (Adenosine receptor A3): ≥ 1 µM | Ki [10]: ≥ 1 µM | Ki [11]: ≥ 1 µM | QH (Homo sapiens): 1.4 L/min | Ki (Adenosine receptor A2a): ≥ 1 µM | Ki [12]: ≥ 1 µM | Ki (Mu-type opioid receptor): ≥ 1 µM | Ki [13]: 8.9 µM | Ki (Histamine H1 receptor): 0.78 µM | Ki [14]: ≥ 1 µM | Ki [15]: ≥ 1 µM | Ki [16]: ≥ 1 µM | Ki [17]: ≥ 1 µM | Ki [18]: ≥ 1 µM | Ki [19]: ≥ 1 µM | Ki [20]: ≥ 1 µM | Ki (Cannabinoid receptor 1): ≥ 1 µM | Ki (D(2) dopamine receptor [21]): ≥ 1 µM | Vd [22]: 4.8 L/kg | Ki [23]: ≥ 1 µM | Ki [24]: ≥ 1 µM
